# Source: patent US20240398764A1, “METHODS OF TREATING DISEASES ASSOCIATED WITH SENESCENT CELL ACCUMULATION” (University of Florida Research Foundation, Incorporated, priority 2021, published 2024)
# Columns and labels:
# [1] = molecular target: Bcl-2 (Homo sapiens, UniProt P10415); experiment: Immunoblot of Bcl-2 degradation in HEK293T cells; type: cell-based; set-up: endogenous in cells; details: different concentrations for 16 h, or 1 μM for various time points
# Description: FIG. 1A depicts immunoblots showing degradation of Bcl-xl and Bcl-2 in HEK293T cells treated with various concentrations of 753b for 16 hours. FIG. 1B depicts immunoblots showing degradation of Bcl-xl and Bcl-2 in HEK293T cells treated with 1 μM 753b for various durations. 3-actin was used as a loading control.
# The potency of 753b in degrading Bcl-xl/2 was evaluated in 293T cells by immunoblots after the cells were treated with different concentrations of 753b for 16 h (FIG. 1A) or after the cells were treated with 1 μM 753b for various time points as indicated (FIG. 1B). Representative immunoblots are shown, and β-actin was used as a loading control.
# [2] = Myofibroblast cell activation and liver fibrosis in the STAM model; type: in vivo, C57BL6 mice; details: STZ/HFD mice, 5 mg/kg twice a week IP, postnatal day 150
# Description: FIG. 9A depicts relative change in aSMA, Procollagen-1, Tgf-β, Ctgf, and Pdgf-β genes in livers of STZ/HFD mice treated with vehicle control or 753b. Data were means±SD of triplicate experiments. *p<0.05. […] Scale bar: […]. […] Actin was used as a loading control. FIG. 9D depicts hydroxyproline (μg/g) levels in the liver of STZ/HFD mice treated with vehicle control or 753b. *p<0.05.
# Experimental design: C57BL6 mice were injected with Streptozotocin (STZ) at postnatal day 2 to induce diabetes and then fed with HFD from postnatal day 30 till the end of the experiments (FIG. 5). Half of the mice started receiving vehicle and the others receiving 753b (5 mg/kg) treatment on postnatal day 45 twice a week by IP injection till the end of the experiments. A group of the mice were euthanized at postnatal day 90 (or day 45 after the initiation of the treatment) for analysis of senescent cell accumulation and steatosis. Another group of the mice were euthanized at postnatal day 150 (or day 105 after the initiation of the treatment) for analysis of liver fibrosis and cancer.
# 753b administration inhibits myofibroblast cell activation and liver fibrosis in the STAM model. All the analyses were done in mice at postnatal day 150 (p150 or 105 days after treatment). […] Quantification was performed from 5 livers per group and was expressed as means±SD.
# [3] = test system: human platelets; experiment: Viability of human platelets; type: cell-based; details: 48 hr incubation; vs ABT263
# Text: FIG. 2A depicts immunoblots showing degradation of Bcl-xl and Bcl-2 in non-senescent WI-38 fibroblast cells (Non-SnCs) treated with varying concentrations of 753b. 3-actin was used as a loading control. FIG. 2B depicts viability of Non-SnCs treated with varying concentrations of 753b or ABT263. FIG. 2C depicts immunoblots showing degradation of Bcl-xl and Bcl-2 in ionizing radiation-induced senescent WI-38 fibroblast cells (IR-SnCs) treated with varying concentrations of 753b. 3-actin was used as a loading control. FIG. 2D depicts viability of IR-SnCs treated with varying concentrations of 753b or ABT263. FIG. 2E depicts immunoblots showing degradation of Bcl-xl and Bcl-2 in human platelets treated with varying concentrations of 753b. FIG. 2F depicts viability of human platelets treated with varying concentrations of 753b or ABT263.
# The potency of 753b in degrading Bcl-xl/2 was evaluated by immunoblots after the cells or platelets were treated with different concentrations of 753b for 16 h ([…]). 753b is more cytotoxic to IR-SnCs but less toxic to Non-SnCs and platelets. The viability of Non-SnCs, IR-SnCs and platelets was measured 72 hr (Non-SnCs and IR-SnCs) and 48 hr (platelets) after they were incubated with increasing concentrations of 753b or ABT263 compared to cells/platelets with vehicle.
# Chain of Bcl-2 (P10415 whole entry): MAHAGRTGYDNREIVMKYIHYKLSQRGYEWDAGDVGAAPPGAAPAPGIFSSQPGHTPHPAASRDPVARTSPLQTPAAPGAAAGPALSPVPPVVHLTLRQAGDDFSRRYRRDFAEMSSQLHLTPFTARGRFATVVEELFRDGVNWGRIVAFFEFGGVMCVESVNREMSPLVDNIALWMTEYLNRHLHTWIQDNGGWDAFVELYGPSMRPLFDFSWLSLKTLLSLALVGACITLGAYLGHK
smiles,measurement,setting,value
Cc1ncsc1-c1ccc([C@H](C)NC(=O)[C@@H]2C[C@@H](O)CN2C(=O)[C@@H](NC(=O)CCCCCCC(=O)N2CCN(C[C@]3(C)CCC(c4ccc(Cl)cc4)=C(CN4CCN(c5ccc(C(=O)NS(=O)(=O)c6ccc(N[C@H](CCN7CCOCC7)CSc7ccccc7)c(S(=O)(=O)C(F)(F)F)c6)cc5)CC4)C3)CC2)C(C)(C)C)cc1 [Compound 753b],Bcl-2 degradation,[1],degrades Bcl-xl and Bcl-2 in a dose- and time-dependent manner
same,Collagen level in livers (hepatic hydroxyproline assay),[2],decreased levels of collagen
same,Liver fibrosis (aSMA immunofluorescent staining and sirius red staining),[2],prevented liver fibrosis
same,aSMA and pro-collagen type I protein levels in livers (Western blotting),[2],low levels of aSMA and pro-collagen type I proteins
same,Levels of fibrosis-related genes in livers (Q-RT-PCR),[2]; vs controls,lower levels of fibrosis-related genes
same,Toxicity (viability) to human platelets compared with ABT263,[3],less toxic
